Assay results reported in the NIST ThermoML archive (doi:10.1021/je800999s).
± gives the expanded uncertainty stated by the source.

Assay: molar heat capacity at constant pressure; xn = mol fraction of the nth substance listed
Details: 101 kPa, Liquid, Large sample (1 g) DSC

COCCOCCOCCOC [2,5,8,11-tetraoxadodecane] + O
molar heat capacity at constant pressure [J/K/mol]
Details | x1 = 0.0999 | x1 = 0.1997 | x1 = 0.2967 | x1 = 0.3977 | x1 = 0.4983 | x1 = 0.5918 | x1 = 0.6926 | x1 = 0.7941 | x1 = 0.8686 | x1 = 1
303.15 K | 109 ± 5 | 141 ± 6 | 171 ± 7 | 198 ± 8 | 224 ± 10 | 250 ± 11 | 275 ± 12 | 300 ± 13 | 328 ± 14 | 359 ± 15
308.15 K | 110 ± 5 | 143 ± 6 | 173 ± 7 | 200 ± 9 | 227 ± 10 | 253 ± 11 | 278 ± 12 | 304 ± 13 | 332 ± 14 | 364 ± 15
313.15 K | 111 ± 5 | 144 ± 6 | 174 ± 7 | 202 ± 9 | 228 ± 10 | 254 ± 11 | 279 ± 12 | 306 ± 13 | 334 ± 14 | 366 ± 16
318.15 K | 112 ± 5 | 145 ± 6 | 175 ± 7 | 203 ± 9 | 229 ± 10 | 255 ± 11 | 281 ± 12 | 307 ± 13 | 335 ± 14 | 368 ± 16
323.15 K | 112 ± 5 | 146 ± 6 | 176 ± 7 | 204 ± 9 | 231 ± 10 | 256 ± 11 | 282 ± 12 | 309 ± 13 | 337 ± 14 | 370 ± 16
328.15 K | 113 ± 5 | 147 ± 6 | 177 ± 8 | 206 ± 9 | 232 ± 10 | 258 ± 11 | 283 ± 12 | 310 ± 13 | 339 ± 14 | 371 ± 16
333.15 K | 114 ± 5 | 148 ± 6 | 179 ± 8 | 207 ± 9 | 233 ± 10 | 259 ± 11 | 285 ± 12 | 312 ± 13 | 341 ± 14 | 373 ± 16
338.15 K | 114 ± 5 | 149 ± 6 | 180 ± 8 | 208 ± 9 | 235 ± 10 | 261 ± 11 | 286 ± 12 | 313 ± 13 | 342 ± 15 | 375 ± 16
343.15 K | 115 ± 5 | 150 ± 6 | 181 ± 8 | 210 ± 9 | 237 ± 10 | 263 ± 11 | 289 ± 12 | 316 ± 13 | 345 ± 15 | 379 ± 16
348.15 K | 116 ± 5 | 151 ± 6 | 183 ± 8 | 211 ± 9 | 238 ± 10 | 264 ± 11 | 290 ± 12 | 318 ± 14 | 347 ± 15 | 381 ± 16
353.15 K | 116 ± 5 | 152 ± 6 | 184 ± 8 | 212 ± 9 | 239 ± 10 | 265 ± 11 | 291 ± 12 | 318 ± 14 | 348 ± 15 | 382 ± 16
